In PubChem BioAssay AID1963449 (Molecular Pharmacology Branch, DTP, NCI, 2024):

Test system: 596521-263-R-J1-PDC complex spheroid growth
Assay: Anticancer human tumor 596521-263-R-J1-PDC patient-derived soft tissue sarcoma cell line growth inhibition [Asc]
Conditions: for IC50: curve of first compound; for viability, T/C: stronger effect = lower value
Experimental: Multicellular complex tumor spheroid response to apoptosis pathway targeting inhibitors Alrizomadlin, Pelcitoclax, and Dasminapant in combination with a variety of drugs and investigational agents in selected tumor cell lines
The MDM2 inhibitor alrizomadlin, the Bcl-2/Bcl-xL inhibitor pelcitoclax, and the IAPs inhibitor dasminapant were evaluated both individually and in combination with standard of care and investigational anticancer small molecules within a complex spheroid model of solid tumors. . Complex spheroids include a stromal component modeled by human endothelial cells (HUVEC) and fibroblasts modeled by human mesenchymal stem cells (MSCs). The concentration ranges selected for each drug and investigational agent were based upon clinically achievable concentrations if the clinical Cmax of the agent was known.
Compounds. The drugs and investigational agents: alrizomadlin (APG-115; NSC831270), pelcitoclax (APG-1252; NSC835773), dasminapant (APG-1387;NSC834197), TAK-243 (NSC785004), copanlisib (NSC809693), olaparib (NSC753686), talazoparib (NSC767125), cobimetinib (NSC 768068), eltanexor (KPT-8602, NSC 794443), abemaciclib (NSC 768073), sotorasib (NSC818433), adagrasib (NSC 831453), MRTX-1133 (NSC 836407), Iadademestat (ORY1001, NSC 806812), and RMC-4630 (NSC839698), were obtained from the NCI Developmental Therapeutics Program Chemical Repository. The FDA-approved anticancer drug set is available from the Developmental Therapeutics Program at https://dtp.cancer.gov/organization/dscb/obtaining/available plates.htm. […] The stock solutions were prepared in dimethyl sulfoxide (DMSO, Sigma-Aldrich, St. Louis, MO, cat. D2650) at 800-fold the tested concentration and stored at -70 degrees C prior to their use. All drugs and investigational agents were tested over a range starting from a high concentration at or near the clinical Cmax and decreasing in half-log increments. If the clinical Cmax for an agent had not been determined, the highest concentration tested was 10 microM.
The patient-derived cancer (PDC) cell lines include five colon adenocarcinomas: 186277-243-T-J2-PDC, 616215-338-R-J1-PDC, 439559-082-T-J2-PDC, 463943-066-T-J2-PDC, and 519858-162-T-J1-PDC; three pancreatic carcinomas: 323965-272-R-J2-PDC, 521955-158-R6-J3-PDC, and 521955-158-R2-J5-PDC; two uterine sarcomas: 327498-152-R-J2-PDC and 993429-296-R-J1-PDC; two rhabdomyosarcomas: 755483-174-R-J1-PDC and 772245-204-R-J1-PDC; two soft tissue sarcomas: 126254-015-R-J1-PDC and 494315-158-R-J1-PDC; two malignant fibrous histiocytomas: 317291-083-R-J1-PDC and 596521-263-R-J1-PDC; two breast carcinomas: 171881-019-R-J1-PDC and 885512-296-R-J2-PDC; and one ovarian carcinoma: 6556581-035-R-J-PDC were obtained from the NCI PDMR, (https://pdmr.cancer.gov). The established cell lines HSSY-2 synovial sarcoma (RRID:CVCL 8719), SYO-1 synovial sarcoma (RRID:CVCL_7146), MPNST malignant peripheral neural sheath tumor were obtained from the Sloan Kettering Institute. The following established cell lines were purchased from the American Type Culture Collection (ATCC, Manassas, VA), Sor the received from the NCI repository:, PANC-1 pancreatic carcinoma (CRL-1469, RRID:CVCL_0480), OVCAR-5 ovarian carcinoma (RRID:CVCL_1628), OVCAR-8 ovarian carcinoma (RRID:CVCL_1629), , MCF-7 breast carcinoma (CRL-12584, RRID:CVCL_0031), MDA-MB-231 breast carcinoma (CRL-12532, RRID:CVCL_0062), NCI-H1876 small cell lung carcinoma (CRL-5902, RRID:CVCL_1503), NCI-H510A small cell lung carcinoma (HTB-184, RRID:CVCL_1565), NCI-H1417 (CRL-5869, RRID:CVCL_1469), and NCI-H196 small cell lung carcinoma (CRL-5823, RRID:CVCL_1509). Dr. Peter Houghton (Greehey Children's Cancer Research Institute, University of Texas Health Science Center, San Antonio, TX) provided Rh-18 rhabdomyosarcoma (RRID:CVCL_1659). Pooled donor human umbilical vein endothelial cells (HUVEC, Lonza, cat. CC-2519) and human mesenchymal stem cells (hMSC, Lonza, cat. PT-2501) were purchased from Lonza (Walkersville, MD).
Cell Culture. […]
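Note: spheroids exposed to compounds for 7 days.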

How did the IC50 (second compound 0.0316 µM) turn out when `Cc1nc(N2CCC3(CC2)COC(C)C3N)c(CO)nc1Sc1ccnc(N)c1Cl` (configuration not stated) + Cc1c(S(C)(=O)=O)c(-c2cc(F)cc(N3CCN(c4ccc(NS(=O)(=O)c5ccc(NC(CCN6CCC(C(=O)OCCCP(=O)(O)O)CC6)CSc6ccccc6)c(S(=O)(=O)C(F)(F)F)c5)cc4)CC3)c2)c(-c2ccc(Cl)cc2)n1C(C)C was run?
Its IC50 is greater than 3000 nM.

What about the IC50 (second compound 0.1 µM) of the same molecule?
The IC50 was greater than 3000 nM.

What about the IC50 (second compound 0.316 µM) of the same molecule?
The IC50 was greater than 3000 nM.

What about the IC50 (second compound 1 µM) of the same molecule?
The IC50 was 2020 nM.

And the IC50 (second compound 3.16 µM)?
The IC50 was 443 nM.

And the IC50 (second compound 10 µM)?
Its IC50 is 97.7 nM.

And the viability, T/C (second compound 0.0316 µM, first compound 0.00949 µM)?
The viability, T/C was 85.5%.

What about the viability, T/C (second compound 0.0316 µM, first compound 0.03 µM) of the same molecule?
Its viability, T/C is 99.6%.

And the viability, T/C (second compound 0.0316 µM, first compound 0.0949 µM)?
The viability, T/C was 77.5%.

And the viability, T/C (second compound 0.0316 µM, first compound 0.3 µM)?
The viability, T/C was 89%.

What about the viability, T/C (second compound 0.0316 µM, first compound 0.949 µM) of the same molecule?
Its viability, T/C is 82.9%.

What about the viability, T/C (second compound 0.0316 µM, first compound 3 µM) of the same molecule?
The viability, T/C was 61.9%.

What about the viability, T/C (second compound 0.1 µM, first compound 0.00949 µM) of the same molecule?
The viability, T/C was 87.8%.

And the viability, T/C (second compound 0.1 µM, first compound 0.03 µM)?
Its viability, T/C is 100%.

And the viability, T/C (second compound 0.1 µM, first compound 0.0949 µM)?
Its viability, T/C is 87.2%.

What about the viability, T/C (second compound 0.1 µM, first compound 0.3 µM) of the same molecule?
Its viability, T/C is 93.7%.

And the viability, T/C (second compound 0.1 µM, first compound 0.949 µM)?
The viability, T/C was 84.6%.

And the viability, T/C (second compound 0.1 µM, first compound 3 µM)?
Its viability, T/C is 59.5%.

And the viability, T/C (second compound 0.316 µM, first compound 0.00949 µM)?
The viability, T/C was 86.4%.

And the viability, T/C (second compound 0.316 µM, first compound 0.03 µM)?
Its viability, T/C is 93.7%.

And the viability, T/C (second compound 0.316 µM, first compound 0.0949 µM)?
Its viability, T/C is 87.2%.

And the viability, T/C (second compound 0.316 µM, first compound 0.3 µM)?
Its viability, T/C is 81.4%.

What about the viability, T/C (second compound 0.316 µM, first compound 0.949 µM) of the same molecule?
Its viability, T/C is 68.9%.

What about the viability, T/C (second compound 0.316 µM, first compound 3 µM) of the same molecule?
Its viability, T/C is 59.7%.

What about the viability, T/C (second compound 1 µM, first compound 0.00949 µM) of the same molecule?
Its viability, T/C is 90.6%.

And the viability, T/C (second compound 1 µM, first compound 0.03 µM)?
The viability, T/C was 85%.

What about the viability, T/C (second compound 1 µM, first compound 0.0949 µM) of the same molecule?
Its viability, T/C is 73.4%.

And the viability, T/C (second compound 1 µM, first compound 0.3 µM)?
Its viability, T/C is 76.7%.

What about the viability, T/C (second compound 1 µM, first compound 0.949 µM) of the same molecule?
The viability, T/C was 64.5%.

And the viability, T/C (second compound 1 µM, first compound 3 µM)?
Its viability, T/C is 42.1%.

And the viability, T/C (second compound 3.16 µM, first compound 0.00949 µM)?
The viability, T/C was 62.6%.

And the viability, T/C (second compound 3.16 µM, first compound 0.03 µM)?
Its viability, T/C is 63.2%.

And the viability, T/C (second compound 3.16 µM, first compound 0.0949 µM)?
Its viability, T/C is 57.4%.

What about the viability, T/C (second compound 3.16 µM, first compound 0.3 µM) of the same molecule?
The viability, T/C was 50%.

What about the viability, T/C (second compound 3.16 µM, first compound 0.949 µM) of the same molecule?
Its viability, T/C is 47.3%.

What about the viability, T/C (second compound 3.16 µM, first compound 3 µM) of the same molecule?
The viability, T/C was 36.5%.

And the viability, T/C (second compound 10 µM, first compound 0.00949 µM)?
Its viability, T/C is 48.5%.

What about the viability, T/C (second compound 10 µM, first compound 0.03 µM) of the same molecule?
Its viability, T/C is 54.4%.

And the viability, T/C (second compound 10 µM, first compound 0.0949 µM)?
The viability, T/C was 52.2%.

And the viability, T/C (second compound 10 µM, first compound 0.3 µM)?
The viability, T/C was 42.6%.

And the viability, T/C (second compound 10 µM, first compound 0.949 µM)?
The viability, T/C was 36%.

And the viability, T/C (second compound 10 µM, first compound 3 µM)?
Its viability, T/C is 28.2%.
